Measured values: patent US9302999B2, “Substituted triazoles as herbicides” (E. I. DU PONT DE NEMOURS AND COMPANY, priority 2012, dated 2016)

Assays:
Assay type in all cases: in vivo
[1] = tested on: morningglory (Ipomoea coccinea); experiment: Test C pre-/postemergence: morningglory
Summary of the method: (§1)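 Visual injury scored 0–100 (100 = complete control) against untreated controls after 13–15 greenhouse days. Surfactant-containing solvent formulations applied either to soil after sowing (loam/sand) or over 1- to 4-leaf plants, 2–18 cm tall.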

[2] = tested on: wild oat (Avena fatua); experiment: Test C pre-/postemergence: wild oat; conditions: Postemergence
Summary of the method: as §1

[3] = tested on: ryegrass, Italian (Italian ryegrass, Lolium multiflorum); experiment: Test C pre-/postemergence: ryegrass, Italian
Summary of the method: as §1

[4] = tested on: corn (Zea mays); experiment: Test C pre-/postemergence: corn
Summary of the method: as §1

[5] = tested on: ragweed (common ragweed, Ambrosia elation); experiment: Test C pre-/postemergence: ragweed
Summary of the method: as §1

[6] = tested on: chickweed (common chickweed, Stellaria media); experiment: Test C postemergence: chickweed
Summary of the method: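 Plants at the 1- to 4-leaf stage (2 to 18 cm tall), grown in pots of peat moss/vermiculite planting medium, received postemergence applications of the formulated test chemicals. After 13 to 15 days in a greenhouse, injury was scored visually versus controls from 0 (no effect) to 100 (complete control).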

[7] = tested on: wheat (Triticum aestivum); experiment: Test A pre-/postemergence: wheat
Summary of the method: (§2)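 Injury is scored visually on a scale where 0 means no effect and 100 complete control, comparing treated with untreated plants after approximately ten greenhouse days. Both preemergence and postemergence applications are made at the same time.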

[8] = tested on: pigweed (Amaranthus retroflexus); experiment: Test A pre-/postemergence: pigweed
Summary of the method: as §2

[9] = tested on: corn (Zea mays); experiment: Test A pre-/postemergence: corn
Summary of the method: as §2

[10] = tested on: large crabgrass (Digitaria sanguinalis); experiment: Test C pre-/postemergence: large crabgrass
Summary of the method: as §1

[11] = tested on: morningglory (Ipomoea spp.); experiment: Test A pre-/postemergence: morningglory
Summary of the method: as §2

[12] = tested on: johnsongrass (Sorghum halepense); experiment: Test C pre-/postemergence: johnsongrass
Summary of the method: as §1

[13] = Postemergence, 31 g ai/ha, scale 0 to 100 (0 no effect, 100 complete control)
[14] = Postemergence, 62 g ai/ha, scale 0 to 100 (0 no effect, 100 complete control)
[15] = Postemergence, 125 g ai/ha, scale 0 to 100, 0 no effect, 100 complete control
[16] = Postemergence, 250 g ai/ha, scale 0 to 100
[17] = Preemergence, 62 g ai/ha, scale of 0 to 100, 0 is no effect, 100 is complete control
[18] = Preemergence, 125 g ai/ha, scale 0 to 100, 0 no effect, 100 complete control
[19] = Preemergence, 250 g ai/ha, scale 0 to 100, 0 no effect, 100 complete control
[20] = 31 g ai/ha, scale 0 to 100 (0 no effect, 100 complete control)
[21] = 62 g ai/ha, scale 0 to 100 (0 no effect, 100 complete control)
[22] = Preemergence, 31 g ai/ha, scale 0 (no effect) to 100 (complete control)
[23] = 125 g ai/ha, scale 0 to 100, 0 no effect, 100 complete control
[24] = Postemergence, 125 g ai/ha, 0 to 100 scale, 0 is no effect, 100 is complete control
[25] = Postemergence, 500 g ai/ha, 0 to 100 scale, 0 is no effect, 100 is complete control
[26] = Preemergence, 125 g ai/ha, 0 to 100 scale where 0 is no effect and 100 is complete control
[27] = Preemergence, 500 g ai/ha, 0 to 100 scale (0 no effect, 100 complete control)
[28] = Postemergence, 250 g ai/ha, scale 0 to 100 (0 no effect, 100 complete control)

For `CCc1nn(-c2ccc(F)cc2)nc1Oc1ccnc(C(F)(F)F)c1` [Compound 166], the “Plant response rating, Morningglory” value [1, 13] was 30, the “Plant response rating, Morningglory” value [1, 14] was 30 and the “Plant response rating, Morningglory” value [1, 15] was 35. For the same compound, the “Plant response rating, Morningglory” value [1, 16] was 65, the “Plant response rating, Morningglory” value [1, 17] was 10 and the “Plant response rating, Morningglory” value [1, 18] was 25. For the same compound, the “Plant response rating, Morningglory” value [1, 19] was 45, the “Plant response rating, Oat, Wild” value [2, 20] was 15 and the “Plant response rating, Oat, Wild” value [2, 21] was 20. For the same compound, the “Plant response rating, Oat, Wild” value ([2]; 250 g ai/ha, scale 0 to 100) was 30, the “Plant response rating, Ryegrass, Italian” value [3, 13] was 5 and the “Plant response rating, Ryegrass, Italian” value [3, 14] was 5. For the same compound, the “Plant response rating, Ryegrass, Italian” value [3, 15] was 20, the “Plant response rating, Ryegrass, Italian” value [3, 16] was 25 and the “Plant response rating, Ryegrass, Italian” value [3, 22] was 5. The “Plant response rating, Ryegrass, Italian” value [3, 17] was 40, the “Plant response rating, Ryegrass, Italian” value [3, 18] was 50 and the “Plant response rating, Ryegrass, Italian” value [3, 19] was 100. For the same compound, the “Plant response rating, Corn” value [4, 13] was 15, the “Plant response rating, Corn” value [4, 14] was 15 and the “Plant response rating, Corn” value [4, 15] was 15. The “Plant response rating, Corn” value [4, 16] was 15, the “Plant response rating, Corn” value [4, 22] was 0 and the “Plant response rating, Corn” value [4, 18] was 5. The “Plant response rating, Corn” value [4, 19] was 20, the “Plant response rating, Ragweed” value [5, 13] was 15 and the “Plant response rating, Ragweed” value [5, 14] was 15. The “Plant response rating, Ragweed” value [5, 15] was 25, the “Plant response rating, Ragweed” value [5, 16] was 75 and the “Plant response rating, Ragweed” value [5, 22] was 20. The “Plant response rating, Ragweed” value [5, 17] was 20, the “Plant response rating, Ragweed” value [5, 18] was 25 and the “Plant response rating, Ragweed” value [5, 19] was 55. For the same compound, the “Plant response rating, Chickweed” value [6, 20] was 55, the “Plant response rating, Chickweed” value [6, 21] was 90 and the “Plant response rating, Chickweed” value [6, 23] was 90. The “Plant response rating, Chickweed” value ([6]; 250 g ai/ha, scale 0 to 100) was 90, the “Plant response rating, Wheat” value [7, 24] was 30 and the “Wheat plant response rating” value [7, 25] was 40. For the same compound, the “Plant response rating, Wheat” value [7, 26] was 10, the “Plant response rating, Wheat” value [7, 27] was 50 and the “Plant response rating, Pigweed” value [8, 24] was 100. The “Pigweed plant response rating” value [8, 25] was 100, the “Plant response rating, Pigweed” value [8, 26] was 100 and the “Plant response rating, Pigweed” value [8, 27] was 100. For the same compound, the “Plant response rating, Corn” value [9, 24] was 20, the “Corn plant response rating” value [9, 25] was 30 and the “Plant response rating, Corn” value [9, 26] was 10. For the same compound, the “Plant response rating, Corn” value [9, 27] was 30, the “Plant response rating, Crabgrass, Large” value [10, 13] was 15 and the “Plant response rating, Crabgrass, Large” value [10, 14] was 15. The “Plant response rating, Crabgrass, Large” value [10, 15] was 20, the “Plant response rating, Crabgrass, Large” value [10, 16] was 40 and the “Plant response rating, Crabgrass, Large” value [10, 22] was 85. The “Plant response rating, Crabgrass, Large” value [10, 17] was 98, the “Plant response rating, Crabgrass, Large” value [10, 18] was 100 and the “Plant response rating, Crabgrass, Large” value [10, 19] was 100. The “Plant response rating, Morningglory” value [11, 24] was 90, the “Morningglory plant response rating” value [11, 25] was 100 and the “Plant response rating, Johnsongrass” value [12, 13] was 10. The “Plant response rating, Johnsongrass” value [12, 14] was 15, the “Plant response rating, Johnsongrass” value [12, 15] was 20 and the “Plant response rating, Johnsongrass” value [12, 16] was 20. The “Plant response rating, Johnsongrass” value [12, 22] was 10, the “Plant response rating, Johnsongrass” value [12, 17] was 30 and the “Plant response rating, Johnsongrass” value [12, 18] was 75. For the same compound, the “Plant response rating, Johnsongrass” value [12, 19] was 100.
In the case of `CCCc1nn(-c2ccc(C(F)(F)F)c(F)c2)nc1Oc1ccnc(C(F)(F)F)c1` [Compound 185], the “Plant response rating, Morningglory” value [1, 13] is reported as 90, the “Plant response rating, Morningglory” value [1, 14] is reported as 98 and the “Plant response rating, Morningglory” value [1, 15] is reported as 100. The “Plant response rating, Morningglory” value [1, 28] was 100, the “Plant response rating, Morningglory” value [1, 22] was 45 and the “Plant response rating, Morningglory” value [1, 17] was 55. The “Plant response rating, Morningglory” value [1, 18] was 70, the “Plant response rating, Morningglory” value [1, 19] was 100 and the “Plant response rating, Oat, Wild” value [2, 20] was 25. The “Plant response rating, Oat, Wild” value [2, 21] was 30, the “Plant response rating, Oat, Wild” value [2, 23] was 55 and the “Plant response rating, Oat, Wild” value ([2]; 250 g ai/ha, scale 0 to 100 (0 no effect, 100 complete control)) was 60. For the same compound, the “Plant response rating, Ryegrass, Italian” value [3, 13] was 10, the “Plant response rating, Ryegrass, Italian” value [3, 14] was 10 and the “Plant response rating, Ryegrass, Italian” value [3, 15] was 25. For the same compound, the “Plant response rating, Ryegrass, Italian” value [3, 28] was 35, the “Plant response rating, Ryegrass, Italian” value [3, 22] was 90 and the “Plant response rating, Ryegrass, Italian” value [3, 17] was 100. The “Plant response rating, Ryegrass, Italian” value [3, 18] was 100, the “Plant response rating, Ryegrass, Italian” value [3, 19] was 100 and the “Plant response rating, Corn” value [4, 13] was 15. For the same compound, the “Plant response rating, Corn” value [4, 14] was 20, the “Plant response rating, Corn” value [4, 15] was 25 and the “Plant response rating, Corn” value [4, 16] was 25. For the same compound, the “Plant response rating, Corn” value [4, 22] was 5, the “Plant response rating, Corn” value [4, 17] was 5 and the “Plant response rating, Corn” value [4, 18] was 35. For the same compound, the “Plant response rating, Corn” value [4, 19] was 35, the “Plant response rating, Ragweed” value [5, 13] was 75 and the “Plant response rating, Ragweed” value [5, 14] was 90. The “Plant response rating, Ragweed” value [5, 15] was 95, the “Plant response rating, Ragweed” value [5, 28] was 95 and the “Plant response rating, Ragweed” value [5, 22] was 40. For the same compound, the “Plant response rating, Ragweed” value [5, 17] was 80, the “Plant response rating, Ragweed” value [5, 18] was 95 and the “Plant response rating, Ragweed” value [5, 19] was 95. For the same compound, the “Plant response rating, Chickweed” value [6, 20] was 70, the “Plant response rating, Chickweed” value [6, 21] was 85 and the “Plant response rating, Chickweed” value [6, 23] was 95. The “Plant response rating, Chickweed” value ([6]; 250 g ai/ha, scale 0 to 100) was 95, the “Plant response rating, Wheat” value [7, 24] was 20 and the “Wheat plant response rating” value [7, 25] was 40. The “Plant response rating, Wheat” value [7, 26] was 30, the “Plant response rating, Wheat” value [7, 27] was 50 and the “Plant response rating, Pigweed” value [8, 24] was 100. The “Pigweed plant response rating” value [8, 25] was 100, the “Plant response rating, Pigweed” value [8, 26] was 100 and the “Plant response rating, Pigweed” value [8, 27] was 100. For the same compound, the “Plant response rating, Corn” value [9, 24] was 20, the “Corn plant response rating” value [9, 25] was 50 and the “Plant response rating, Corn” value [9, 26] was 10. The “Plant response rating, Corn” value [9, 27] was 30, the “Plant response rating, Crabgrass, Large” value [10, 13] was 25 and the “Plant response rating, Crabgrass, Large” value [10, 14] was 40. For the same compound, the “Plant response rating, Crabgrass, Large” value [10, 15] was 60, the “Plant response rating, Crabgrass, Large” value [10, 16] was 80 and the “Plant response rating, Crabgrass, Large” value [10, 22] was 100. The “Plant response rating, Crabgrass, Large” value [10, 17] was 100, the “Plant response rating, Crabgrass, Large” value [10, 18] was 100 and the “Plant response rating, Crabgrass, Large” value [10, 19] was 100. For the same compound, the “Plant response rating, Morningglory” value [11, 24] was 100, the “Morningglory plant response rating” value [11, 25] was 100 and the “Plant response rating, Morningglory” value [11, 26] was 60. For the same compound, the “Plant response rating, Morningglory” value [11, 27] was 100, the “Plant response rating, Johnsongrass” value [12, 13] was 10 and the “Plant response rating, Johnsongrass” value [12, 14] was 30. The “Plant response rating, Johnsongrass” value [12, 15] was 65, the “Plant response rating, Johnsongrass” value [12, 28] was 75 and the “Plant response rating, Johnsongrass” value [12, 22] was 25. The “Plant response rating, Johnsongrass” value [12, 17] was 70, the “Plant response rating, Johnsongrass” value [12, 18] was 80 and the “Plant response rating, Johnsongrass” value [12, 19] was 100.
